Test results taken from patent US20160136295A1, “BIOMARKERS FOR TREATMENT WITH ANTI-TUBULIN CHEMOTHERAPEUTIC COMPOUNDS” (GENENTECH, INC., priority 2012, published 2016).
Square brackets hold non-standard residues; d marks the D form. Peptide text beside a SMILES is read from it. * marks the point of attachment. Dolaproine = CO[C@@H]([C@@H]1CCCN1)[C@@H](C)C(=O)O; Dil = CC[C@H](C)[C@H](NC)[C@@H](CC(=O)O)OC; X1 = C[C@@H](N*)[C@@H](O)c1ccccc1; NMeV = CN[C@H](C(=O)O)C(C)C

Legend:
[1] = test system: ovarian cancer cell lines; assay: Cell viability of ovarian cancer cell lines by FBW7 status; type: cell-based, human; conditions: FBW7-wild-type ovarian cancer cell lines that undergo mitotic arrest, relative to FBW7-mutant cells
Experimental: (§1) The viability of cancer cell lines, and MEFs in which genes encoding IAPs had been knocked out, was analysed by using the CellTiter-Glo Luminescent Cell Viability Assay® (Promega). Cells were treated in triplicate with anti-tubulin agents for the indicated times, using dimethylsulphoxide treatment as a control. The viability of BCL2-family-member-null MEFs was analysed by propidium iodide staining, as described previously (Chen, L. et al. (2005) Molecular cell 17:393-403), after treatment with anti-tubulin agents for 48 h. Cell synchronization was achieved by culture either in serum-free medium for 12-16 h or in medium containing 2 mM thymidine for 18-24 h, release from the thymidine block with three washes in PBS, followed by culture for 8-12 h in complete growth media (compositions are described in the Supplementary Information). Cells then underwent a second thymidine block for 16-20 h, three further washes in PBS and release into complete medium containing the indicated reagents. To block MCL1 degradation, […] MG132 was added as cells entered mitotic arrest, as assessed by visual inspection. See the Examples for full methods.

[2] = test system: FBW7-WT, FBW7−/− or FBW7 mutant colon cancer cell lines (HCT116, DLD1); assay: Cell viability of colon cancer cell lines by FBW7 status (CellTiter-Glo); type: cell-based, human; conditions: 48 hours; for sensitivity to drug-induced death upon reducing Mcl-1 protein: FBW7-null HCT116 cells, doxycycline-inducible Mcl-1 shRNA
Experimental: as §1
were synthesized by Ambion and experiments were performed as described (Huang, H. C., et al (2009) Cancer cell 16:347-358). For viability experiments using stable cell lines transfected with doxycycline-inducible shRNAs to LacZ or Mcl-1 ORF, cells were plated in 10 cm2 plates with 0.2 μg/mL doxycycline for two days. On the third day, cells were plated in to 96-well plates at 5×10^3 per well for viability assays as described above. […] For western blot analysis, cells were harvested at indicated time points and processed as described above.

[3] = test system: MEFs in which genes encoding IAPs had been knocked out; assay: Cell viability of MEF cell lines deficient in IAP genes (CellTiter-Glo); type: cell-based, murine; conditions: IAP-deficient MEFs plus siRNA, 48 hours
Experimental: as §1

[4] = test system: murine embryonic fibroblasts (MEFs); assay: Viability of BCL2-family-member-null MEFs by propidium iodide staining after anti-tubulin agents; type: cell-based; conditions: for killing (cell viability): treated 48 hours; for sensitivity to killing: 48 hours
Experimental: as §1

[5] = test system: TOV112D-X1 ovarian tumors; assay: Ovarian tumor xenografts in vivo; design: species or system athymic nu/nu mice; conditions: tumors expressing FBW7-R505L vs FBW7-wild-type; 20 mg/kg intravenous, days 21 and 23 post implant
Experimental: Wild-type FBW7 TOV112D-X1 ovarian cancer cells expressing either an empty vector (vector) or the R505L point mutant (FBW7-R505L) were resuspended in Matrigel® (BD Biosciences) at a density of 1×10^8 cells/mL, and […] Matrigel® grafts containing 1×10^6 cancer cells were implanted under the kidney capsule of 8-week-old athymic nu/nu mice (Harlan Sprague Dawley). Only one graft was implanted per mouse. Once tumors became palpable on the kidney surface, tumor growth was assessed three times per week via caliper measurements of the entire kidney volume (0.523×length×width×height). On day 21 post-implant, when tumors reached an average volume of 700 mm^3, paclitaxel (APP Pharmaceuticals) was administered to both FBW7-WT and FBW7-R505L tumor groups via intravenous tail vein injection at 20 mg/kg in 5% dextrose water. Paclitaxel administration was repeated on day 23 post-implant. Statistical differences were evaluated using a two-tailed Student's t-test. P values of less than 0.05 were considered significant.

[6] = test system: ovarian cancer cell lines; assay: Mitotic arrest in asynchronous ovarian cancer cell lines (western blot, phospho-histone H3 ELISA); type: cell-based, human; conditions: unsynchronized cell lines, 200 nM paclitaxel
Experimental: The unsynchronized cell lines (with FBW7 status specified in parentheses) were treated with 200 nM paclitaxel and were subsequently collected at the indicated time points for western blot and phospho-histone H3 ELISA analysis.

[7] = test system: HCT116 cells; assay: Live time-lapse imaging of mitotic fate; type: cell-based, human; conditions: for drug-induced apoptosis upon decreasing Mcl-1 protein levels: FBW7-null cells with Mcl-1 shRNA vs control shRNA; for exit from drug-induced mitotic arrest (mitotic slippage): FBW7-null vs FBW7-wild-type cells
Experimental: HCT116 parental or FBW7−/− cells expressing shLacZ or shMcl-1 were plated at 15,000-30,000 cells per well in 96-well μ-plates (ibidi GmbH) and infected with GFP-H2B baculovirus (Invitrogen) 24 hours prior to adding paclitaxel or vincristine. Cells were imaged live at 37° C. with 5% CO2 using a Nikon TiE® microscope with a Cool Snap® CCD camera (Roper Scientific) and a Plan Apo VC 20× 0.75 NA objective. Three images with 6 μm z-steps were acquired for each position every 10 minutes for 43 hours. Mitotic fate was analyzed manually using NIS-Elements software (Nikon) and numerical data was complied and statistically analyzed using Excel (Microsoft). Fifty mitotic cells were analyzed for each condition and p-values were calculated for the change in the number of cells that exited mitosis or entered apoptosis using the one-tailed Fisher's exact test.

[8] = test system: Mcl-1; assay: Mcl-1 protein level / degradation in mitotic arrest (western blot of synchronized cells); type: cell-based, human; conditions: for maintenance of mitotic arrest (cdc27 phosphorylation) / Mcl-1 degradation in mitotic arrest: HeLa released into paclitaxel; for maintenance of mitotic arrest (cdc27 phosphorylation): CGP74514A 2 μM or roscovitine 2.5 μM; for Mcl-1 degradation in mitotic arrest: CGP74514A 2 μM, FR180204 2 μM, SP600125 25 μM, SB203580 2 μM added on entry into mitotic arrest
Experimental: as §1
(§2) Western blotting was performed essentially as described (Wertz, I. E. et al. (2004) Science (New York, N.Y 303:1371-1374). In brief, cells were lysed in corrected FLAG elution buffer (CFEB) (19.17 mM Tris (pH 7.5), 916.7 μM MgCl2, 92.5 mM NaCl and 0.1% Triton X-100) with protease and phosphatase inhibitors; in some cases 6 M urea was added. Cleared lysates were quantitated and equal amounts of proteins were reduced, alkylated, separated by SDS-PAGE, and transferred onto PVDF membranes (Invitrogen) following standard procedures. Western blotting was performed as recommended by the respective antibody manufacturers. Patient tissue and xenograft samples were lysed in 5× volume of CFEB with protease inhibitors using Fast prep 24 (MP Biologicals). Tissue lysates were cleared and 40 μg total protein was prepared for western blotting analysis as described above. Immunoprecipitations were performed with the indicated antibodies as described (Willis, S. N. et al. (2007) Science (New York, N.Y 315:856-859; Wertz, I. E. et al. (2004) Science (New York, N.Y 303:1371-1374). PP2A activity was performed on PP2A or Mcl-1 immunoprecipitates as recommended by the manufacturer (Upstate)

[9] = test system: myc-Mcl-1 / FLAG-FBW7; assay: Recruitment of myc-Mcl-1 to FLAG-FBW7 in mitotic arrest (immunoprecipitation, HeLa cells); type: cell-based, human; conditions: HeLa released into paclitaxel; agent 1 hour then 3 hour 25 μM MG-132; SP600125 25 μM, SB203580 2.65 μM, CGP74514A, roscovitine 2.5 μM
Experimental: The indicated constructs were expressed in HeLa cells with or without scramble or cdc20 RNAi, and then synchronized and released into paclitaxel. […] Cells were subsequently collected and processed as indicated.
as §2

[10] = test system: Granta-519, HCT-116 and HeLa cells; assay: Mitotic arrest and Mcl-1 degradation with MMAE (FIG. 5); type: cell-based
[11] = FBW7-null cell lines relative to wild-type cells

CC(=O)O[C@H]1C(=O)[C@@]2(C)[C@H]([C@H](OC(=O)c3ccccc3)[C@]3(O)CC(OC(=O)[C@H](O)[C@@H](NC(=O)c4ccccc4)c4ccccc4)C(C)=C1C3(C)C)[C@]1(OC(C)=O)CO[C@@H]1C[C@@H]2O (relative stereo) [paclitaxel, β-(benzoylamino)-α-hydroxy-,6,12b-bis(acetyloxy)-12-(benzoyloxy)-2a,3,4,4a,5,6,9,10,11,12,12a,12b-dodecahydro-4,11-dihydroxy-4a,8,13,13-tetramethyl-5-oxo-7,11-methano-1H-cyclodeca(3,4)benz(1,2-b) oxet-9-ylester,(2aR-(2a-α,4-β,4a-β,6-β,9-α(α-R*,β-S*),11-α,12-α,12α-α,2b-α))-benzenepropanoic acid]
sensitivity (cell viability) [1]: sensitive | sensitivity to drug-induced death upon reducing Mcl-1 protein [2]: restored their sensitivity | resistance to drug-induced cell death [2, 11]: more resistant | resistance to drug-induced cell death ([2]; FBW7−/− or FBW7 mutant colon cancer cell lines relative to FBW7-WT): more resistant | cell sensitivity upon ablation of IAP family proteins [3]: does not enhance cell sensitivity | killing (cell viability) ([4]; BAX−/−/BAK−/− MEFs): resistant | sensitivity to killing ([4]; BCL-X−/− MEFs vs wild-type): more sensitive than wild-type cells | sensitivity to killing ([4]; MCL-1−/− MEFs vs wild-type): enhanced sensitivity | killing (cell viability) ([4]; wild-type MEFs): significantly more sensitive | tumor resistance (tumor volume growth curves) [5]: more resistant | mitotic arrest [6]: arrested in mitosis | drug-induced apoptosis upon decreasing Mcl-1 protein levels [7]: enhanced | exit from drug-induced mitotic arrest (mitotic slippage) [7]: more readily | Mcl-1 protein level in mitotic arrest ([8]; synchronized cells (HeLa) released into the agent): declined markedly

CCn1cnc2c(Nc3cccc(Cl)c3)nc(N[C@@H]3CCCC[C@@H]3N)nc21 [CGP74514A]
recruitment of myc-Mcl-1 to FLAG-FBW7 in mitotic arrest [9]: attenuates recruitment of myc-Mcl-1 to FLAG-FBW7 | maintenance of mitotic arrest (cdc27 phosphorylation) [8]: drives cells out of mitotic arrest | Mcl-1 degradation in mitotic arrest [8]: attenuate Mcl-1 degradation

CC[C@H](C)[C@@H]([C@@H](CC(=O)N1CCC[C@H]1[C@H](OC)[C@@H](C)C(=O)N[C@H](C)[C@@H](O)c1ccccc1)OC)N(C)C(=O)[C@@H](NC(=O)[C@@H](NC)C(C)C)C(C)C [MMAE, (S)—N-((3R,4S,5S)-1-((S)-2-((1R,2R)-3-(((1S,2R)-1-hydroxy-1-phenylpropan-2-yl)amino)-1-methoxy-2-methyl-3-oxopropyl)pyrrolidin-1-yl)-3-methoxy-5-methyl-1-oxoheptan-4-yl)-N,3-dimethyl-2-((S)-3-methyl-2-(methylamino)butanamido)butanamide] (H-[NMeV]V[Dil][Dolaproine]-X1)
mitotic arrest (phospho-cdc27) [10]: promotes mitotic arrest | Mcl-1 degradation ([10]; subsequent to mitotic arrest): Mcl-1 degradation

C[S+]([O-])c1ccc(-c2nc(-c3ccncc3)c(-c3ccc(F)cc3)[nH]2)cc1 (centres unmarked) [SB203580]
recruitment of myc-Mcl-1 to FLAG-FBW7 in mitotic arrest [9]: attenuates recruitment of myc-Mcl-1 to FLAG-FBW7 | Mcl-1 degradation in mitotic arrest [8]: attenuate Mcl-1 degradation

CC[C@H](CO)Nc1nc(NCc2ccccc2)c2ncn(C(C)C)c2n1 [roscovitine]
recruitment of myc-Mcl-1 to FLAG-FBW7 in mitotic arrest [9]: attenuates recruitment of myc-Mcl-1 to FLAG-FBW7 | maintenance of mitotic arrest (cdc27 phosphorylation) [8]: drives cells out of mitotic arrest

CC[C@]1(O)C[C@H]2CN(CCc3c([nH]c4ccccc34)[C@@](C(=O)OC)(c3cc4c(cc3OC)N(C=O)[C@H]3[C@@](O)(C(=O)OC)[C@H](OC(C)=O)[C@]5(CC)C=CCN6CC[C@]43[C@@H]65)C2)C1 [vincristine, 22-Oxovincaleukoblastine]
sensitivity to drug-induced death upon reducing Mcl-1 protein [2]: restored their sensitivity | resistance to drug-induced cell death [2, 11]: more resistant | sensitivity to killing ([4]; BCL-X−/− MEFs vs wild-type): not BCL-X enhances sensitivity | sensitivity to killing ([4]; MCL-1−/− MEFs vs wild-type): enhanced sensitivity | drug-induced apoptosis upon decreasing Mcl-1 protein levels [7]: enhanced | exit from drug-induced mitotic arrest (mitotic slippage) [7]: more readily
